Measured values taken from BindingDB's records for doi:10.1016/j.bmc.2012.12.025 (Astellas Pharma, 2013).

Assays:
[1] = target: Diamine oxidase AOC1 (Rattus norvegicus); experiment: Inhibition of rat liver DAO using putrescine as substrate after 1 hr by fluorometric assay
[2] = target: Diamine oxidase AOC1 (Homo sapiens); experiment: Inhibition of human DAO expressed in CHO cells using putrescine as substrate after 1 hr by fluorometric assay

IC50 [1]: 75 µM
IC50 [2]: > 100 µM
SMILES: CC(=O)Nc1nc(CCc2ccc(N=C(N)N)cc2)cs1
